Test results as given in patent publication US20230263754A1, “SOLID DISPERSIONS AND PARTICLES AND METHODS FOR CONTROLLED-RELEASE OF LIPID-SOLUBLE OR DISPESIBLE ACTIVES” (YISSUM RESEARCH DEVELOPMENT COMPANY OF THE HEBREW …, priority 2020, published 2023).
Each block holds one molecule with its values, some of them ahead of it.

Tests used:
Assay type in all cases: physicochemical
[1] = In vitro drug release from beeswax microspheres (Example 6)
Method: 10 mg of microspheres were mixed with 5 mL of H2O or buffer and placed in the incubator. Three samples of each formulation were run at same conditions. A 3 mL samples were withdrawn at predetermined time intervals and an equal volume of fresh dissolution medium was replaced.
In vitro drug release for the obtained microspheres was studied in 5 ml of 10 mM buffer phosphate solution, pH 7.4 or in ddH2O at 37° C.

[2] = Encapsulation efficiency and loading capacity of solid lipid microspheres (UV after dissolving in chloroform)
Method: The standard curves were constructed in a concentration range of 3-70 µg/mL in 10 mM PBS with R^2 value of 0.9993 and in a concentration range of 15-800 µg/mL in chloroform with R^2 value of 0.9935.
Encapsulation efficiency is percentage of drug encapsulated in the microspheres relating to initial quantity used. 10 mg of microspheres were dissolved in 4 mL of chloroform. The absorbance of the drugs was measured using a UV-VIS spectrophotometer after appropriate dilution in order to reach calibration curve concentrations. The measured absorbance was then converted to the amount of drug by using standard calibration curve.
The loading capacity is usually expressed as the ratio of the weight of entrapped drug and the total weight of the lipid and coating particles in percentage.
Drug entrapment efficiency is calculated in order to determine the amount of drug that is actually retained in the microparticles related to the amount of drug that was mixed with lipid before particles formation, and usually expressed as a percentage.

[3] = Weight loss of DEET loaded microparticles at accelerated temperature; conditions: 30% w/w DEET loaded microparticles, 1:10 SiO2-NH2:hydrogenated vegetable oil, accelerated temperature 50° C., 1 h
Method: Drug loading: DEET insect repellent 30% (w/w): 30% w/w of DEET was loaded into the microparticles. The selection of the 30% drug content was based on the dissolving the DEET into the molten oil and then cooled down. The DEET loading was examined for 1:1, 1:2, 1:10 and 1:20 ratio SiO2-NH2:hydrogenated vegetable oil. The DEET loaded particles were tested by weight loss in the DEET loaded 1:10 ratio was examined. Accelerated temperature of 50° C. was used. The weight sample was heated to […] and monitored the weight loss for 1 h. 2% decrease in the weight loss of the DEET loaded microparticles was observed.

[4] = Release of drugs from Pickering particles in phosphate buffer (Example 3); conditions: for time within which almost all the drug was released: 1% (w/w) drug loaded Pickering dispersion, aqueous solution, room temperature; for release behaviour from the Pickering particles in the release medium: FIGS. 6, buffer medium
Method: Release of drugs from particles: Standard curve of drug was prepared in 10 mM phosphate buffer at pH 7.2. 10 mg of drug loaded lyophilized Pickering particles were added to 2 mL of buffer and the periodic isolated solution was analyzed by UV. The release was examined at room temperature. This was done in purpose to examine the drug release properties from the Pickering particles. The analysis of initial 30 min of release is considered as the burst release of drugs from the particles (FIGS. 6).
Release of ibuprofen from 1% (w/w) drug loaded Pickering dispersion. The release of ibuprofen was monitored by UV at the wavelength of 223 nm.
Release of ketoprofen from 1% (w/w) drug loaded Pickering dispersion. Standard curve of ketoprofen was prepared in 10 mM phosphate buffer at pH 7.2 at wavelength of 260 nm.
The particles were checked for the drug release with time. FIGS. 6 provides the release of the drug loaded Pickering particles in a buffer medium.

[5] = Fluazinam release from microparticles immersed in water; conditions: hydrogenated vegetable oil particles decorated with modified silica nanoparticles, about 20 microns, room temperature

Structure (SMILES): CCN(CC)CC(=O)Nc1c(C)cccc1C [Lidocaine]
drug released in initial burst, first 24 h ([1]; Lidocaine from Beeswax-Chitosan microspheres, 10 mM phosphate buffer pH 7.4, 37° C.): about 70%
entrapment efficacy ([2]; Lidocaine in Beeswax-Chitosan particles (pH 6.5)): 49%

decrease in weight (weight loss) [3]: 2%
Structure (SMILES): CCN(CC)C(=O)c1cccc(C)c1 [DEET]

time within which almost all the drug was released [4]: ≤ 30 min
Structure (SMILES): CC(C(=O)O)c1cccc(C(=O)c2ccccc2)c1 (stereo not drawn) [ketoprofen]

time during which most of the drug was released ([1]; Ibuprofen from Beeswax-Starch MSs, PBS pH 7.4, 37° C.): 4 days
further continuation of release in water compared with buffer ([1]; Ibuprofen from Beeswax-Starch MSs, ddH2O, 37° C.): 7 days
time within which almost all the drug was released [4]: ≤ 30 min
release behaviour from the Pickering particles in the release medium [4]: sustained release
loading capacity ([2]; Ibuprofen in Beeswax-Starch MSs, average of three experiments): 15.7%
entrapment efficiency ([2]; Ibuprofen-loaded microspheres from beeswax and starch): 71%
Structure (SMILES): CC(C)Cc1ccc(C(C)C(=O)O)cc1 (stereo not drawn) [ibuprofen]

release behaviour from the Pickering particles in the release medium [4]: sustained release
Structure (SMILES): CN(C)CCC[C@@]1(c2ccc(F)cc2)OCc2cc(C#N)ccc21 [escitalopram]

Structure (SMILES): O=[N+]([O-])c1cc(C(F)(F)F)c(Cl)c([N+](=O)[O-])c1Nc1ncc(C(F)(F)F)cc1Cl [Fluazinam]
release behaviour in water [5]: constantly releasing
